Measured values as given in patent US20240287138A1, “CYCLIC PEPTIDES FOR INHIBITING TNF RECEPTOR 1 ACTIVITY” (Merck Sharp & Dohme LLC, priority 2023, published 2024).
Numbered stars: 1 amine (or outer) side, 2 acyl side, 3 side chain; on linkers, the order of the positions; unused ones are H or OH. Bridge positions count the residues as written; N and C are the ends. Square brackets hold non-standard residues; d marks the D form. Peptide text beside a SMILES is read from it. Trp(βS-Me,7-OMe) = COc1cccc2c([C@H](C)[C@H](N)C(=O)O)c[nH]c12; Ala(1-bicyclo(1.1.1)pentyl) = N[C@@H](CC12CC(C1)C2)C(=O)O; Phe(3-CH2NH2) = O=C([C@H](Cc1cccc(CN[*:3])c1)N[*:1])[*:2]; Trp(4-Cl) = N[C@@H](Cc1c[nH]c2cccc(Cl)c12)C(=O)O; Trp(7-Cl) = N[C@@H](Cc1c[nH]c2c(Cl)cccc12)C(=O)O; Phe(4-CONH2) = NC(=O)c1ccc(C[C@H](N)C(=O)O)cc1; Phe(4-COOH) = N[C@@H](Cc1ccc(C(=O)O)cc1)C(=O)O; Trp(7-aza) = N[C@@H](Cc1c[nH]c2ncccc12)C(=O)O; Trp(1-Me) = Cn1cc(C[C@H](N)C(=O)O)c2ccccc21; dPro(cis-4-NH2) = N[C@H]1CN[C@@H](C(=O)O)C1; N(CH2CH2COOH)Gly = O=C(O)CCNCC(=O)O; Pip(4-aza) = O=C(O)[C@@H]1CNCCN1; 4Pal = N[C@@H](Cc1ccncc1)C(=O)O; NMeE = CN[C@@H](CCC(=O)O)C(=O)O; NMeN = CN[C@@H](CC(N)=O)C(=O)O; Pip = O=C(O)[C@@H]1CCCCN1; αMeS = C[C@](N)(CO)C(=O)O; Nle = CCCC[C@H](N)C(=O)O; Sar = CNCC(=O)O

Assays:
[1] = target: T1, human TNFR1 extracellular domain (ECD) protein (Homo sapiens, UniProt P19438); assay: SPR binding affinity to captured human TNFR1 ECD
T1 construct: HRV 3C protease cleavage site (C); 6His (C, cleaved yes); made in house; host or cells: Sf21 insect cells (baculovirus), secreted
T1 sequence (P19438 30-211): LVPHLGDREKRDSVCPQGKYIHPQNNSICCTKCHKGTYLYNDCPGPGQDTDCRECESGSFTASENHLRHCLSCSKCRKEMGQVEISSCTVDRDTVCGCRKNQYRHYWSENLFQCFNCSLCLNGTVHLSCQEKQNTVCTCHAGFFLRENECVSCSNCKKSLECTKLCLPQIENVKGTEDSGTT
Summary of the method: (§1)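 Biotinylated avi-tagged human TNFR1 or TNFR2 ECD, expressed in Sf21 insect cells, captured on streptavidin SPR chip; peptide analytes run in 10 mM HEPES pH 7.4, 150 mM NaCl, 3 mM EDTA, 0.05% P20, 2% DMSO. kon and koff measured, affinity KA calculated.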

[2] = target: T2, human soluble TNFR1 (sTNFR1) (Homo sapiens, UniProt P19438); assay: Human sTNFR1-peptide displacement assay (LanthaScreen Eu TR-FRET binding assay)
T2 construct: made in house; host or cells: Sf21 (baculovirus)
T2 sequence (P19438 with tags, fused parts or gaps): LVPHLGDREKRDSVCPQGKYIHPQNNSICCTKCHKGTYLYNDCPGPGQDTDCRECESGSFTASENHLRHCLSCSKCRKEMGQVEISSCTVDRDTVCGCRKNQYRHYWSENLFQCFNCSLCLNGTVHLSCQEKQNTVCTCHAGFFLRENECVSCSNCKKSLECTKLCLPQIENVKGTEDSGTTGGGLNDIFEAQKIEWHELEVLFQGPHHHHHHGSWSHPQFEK
Summary of the method: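 Readout is the 665/615 nm TR-FRET ratio (Eu anti-His donor, streptavidin-Alexa647 acceptor), normalized to DMSO and saturating displacer, fit by Morrison-based five-parameter logistic for Kd^app. His-tagged sTNFR1 (1-211) prebound to 100 nM biotinylated peptide SEQ ID NO.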

human TNFR2 ECD protein = target: T3, human TNFR2 ECD protein (Homo sapiens, UniProt P20333); assay: SPR off-target binding (selectivity) to human TNFR2 ECD
T3 construct: HRV 3C protease cleavage site (C); 6His (C, cleaved yes); made in house; host or cells: Sf21 insect cells (baculovirus), secreted
T3 sequence (P20333 23-257): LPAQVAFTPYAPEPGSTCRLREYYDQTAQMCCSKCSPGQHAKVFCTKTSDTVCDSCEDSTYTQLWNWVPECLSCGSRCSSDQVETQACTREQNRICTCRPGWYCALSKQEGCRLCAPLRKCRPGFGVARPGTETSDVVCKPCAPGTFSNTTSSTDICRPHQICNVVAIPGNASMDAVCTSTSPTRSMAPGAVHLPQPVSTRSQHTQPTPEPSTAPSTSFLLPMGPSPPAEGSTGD
Summary of the method: as §1

`CCCC[C@@H]1NC(=O)CSC[C@@H](C(N)=O)NC(=O)[C@H]([C@@H](C)c2c[nH]c3c(OC)cccc23)NC(=O)CN(C)C(=O)[C@H](Cc2ccc(O)cc2)NC(=O)[C@H](Cc2ccc(C(=O)O)cc2)NC(=O)[C@](C)(CO)NC(=O)[C@H](Cc2c[nH]c3c(Cl)cccc23)NC(=O)[C@H](Cc2ccc(OC)cc2)NC(=O)[C@H](CC(N)=O)NC(=O)[C@H](CCC(=O)O)N(C)C(=O)[C@H](Cc2c[nH]c3ccccc23)NC(=O)[C@@H]2CNCCN2C(=O)[C@H](Cc2ccncc2)NC1=O` [SEQ ID NO. 218] ({CH2CO}-[Nle][4Pal][Pip(4-aza)]W[NMeE]NY(Me)[Trp(7-Cl)][αMeS][Phe(4-COOH)]Y[Sar][Trp(βS-Me,7-OMe)]C-NH2; thioether N-14) showed a Kd [1] of 0.5 nM, an IC50 [2] of 1.15 nM and a Kd (human TNFR2 ECD protein) of over 1000 nM.

`CCCC[C@@H]1NC(=O)CSC[C@@H](C(N)=O)NC(=O)[C@H]([C@@H](C)c2c[nH]c3c(OC)cccc23)NC(=O)CN(C)C(=O)[C@H](Cc2ccc(O)cc2)NC(=O)[C@H](Cc2ccc(C(N)=O)cc2)NC(=O)[C@](C)(CO)NC(=O)[C@H](Cc2c[nH]c3c(Cl)cccc23)NC(=O)[C@H](Cc2ccncc2)NC(=O)[C@H](CC(N)=O)NC(=O)[C@H]2C[C@@H](N)CN2C(=O)[C@H](Cc2c[nH]c3ncccc23)NC(=O)[C@@H]2CNCCN2C(=O)[C@H](Cc2ccncc2)NC1=O` [SEQ ID NO. 219] ({CH2CO}-[Nle][4Pal][Pip(4-aza)][Trp(7-aza)][dPro(cis-4-NH2)]N[4Pal][Trp(7-Cl)][αMeS][Phe(4-CONH2)]Y[Sar][Trp(βS-Me,7-OMe)]C-NH2; thioether N-14) showed a Kd [1] of 0.1 nM, an IC50 [2] of 0.3 nM and a Kd [2] of 0.15 nM. It also gave a Kd (human TNFR2 ECD protein) of over 1000 nM.

`CCCC[C@@H]1NC(=O)CSC[C@@H](C(N)=O)NC(=O)[C@H]([C@@H](C)c2c[nH]c3c(OC)cccc23)NC(=O)CN(C)C(=O)[C@H](Cc2ccc(O)cc2)NC(=O)[C@H](Cc2ccc(C(=O)O)cc2)NC(=O)[C@](C)(CO)NC(=O)[C@H](Cc2c[nH]c3c(Cl)cccc23)NC(=O)[C@H](Cc2ccncc2)NC(=O)[C@H](CC(N)=O)NC(=O)CN(CCC(=O)O)C(=O)[C@H](Cc2c[nH]c3ncccc23)NC(=O)[C@@H]2CCCCN2C(=O)[C@H](Cc2ccncc2)NC1=O` [SEQ ID NO. 220] ({CH2CO}-[Nle][4Pal][Pip][Trp(7-aza)][N(CH2CH2COOH)Gly]N[4Pal][Trp(7-Cl)][αMeS][Phe(4-COOH)]Y[Sar][Trp(βS-Me,7-OMe)]C-NH2; thioether N-14) was tested, and the Kd [1] was 0.25 nM, the Kd [2] was 0.55 nM and the Kd (human TNFR2 ECD protein) was over 1000 nM.

`CN1CC(=O)N[C@@H](Cc2c[nH]c3cccc(Cl)c23)C(=O)N[C@H](C(N)=O)CSCC(=O)N[C@@H](CC23CC(C2)C3)C(=O)N[C@@H](Cc2cccc(CN)c2)C(=O)N[C@@H](CO)C(=O)N[C@@H](Cc2c[nH]c3c(Cl)cccc23)C(=O)N2CCC[C@@H]2C(=O)N(C)[C@@H](CC(N)=O)C(=O)N[C@@H](Cc2ccc(C(=O)O)cc2)C(=O)N[C@@H](Cc2c[nH]c3c(Cl)cccc23)C(=O)N[C@@](C)(CO)C(=O)N[C@@H](Cc2ccc(C(=O)O)cc2)C(=O)N[C@@H](Cc2cccc(CN)c2)C1=O` [SEQ ID NO. 222] ({CH2CO}-[Ala(1-bicyclo(1.1.1)pentyl)][Phe(3-CH2NH2)]S[Trp(7-Cl)][dP][NMeN][Phe(4-COOH)][Trp(7-Cl)][αMeS][Phe(4-COOH)][Phe(3-CH2NH2)][Sar][Trp(4-Cl)]C-NH2; thioether N-14) showed a Kd [1] of 0.18 nM, an IC50 [2] of 1.73 nM and a Kd (human TNFR2 ECD protein) of over 1000 nM.

With `CCCC[C@@H]1NC(=O)CSC[C@@H](C(N)=O)NC(=O)[C@H](Cc2cn(C)c3ccccc23)NC(=O)CN(C)C(=O)[C@H](Cc2ccc(O)cc2)NC(=O)[C@H](Cc2ccc(C(=O)O)cc2)NC(=O)[C@](C)(CO)NC(=O)[C@H](Cc2c[nH]c3c(Cl)cccc23)NC(=O)[C@H](Cc2ccncc2)NC(=O)[C@H](CC(N)=O)NC(=O)[C@H](CCC(=O)O)N(C)C(=O)[C@H](Cc2c[nH]c3ncccc23)NC(=O)[C@H](CO)NC(=O)[C@H](Cc2ccncc2)NC1=O` [SEQ ID NO. 223] ({CH2CO}-[Nle][4Pal]S[Trp(7-aza)][NMeE]N[4Pal][Trp(7-Cl)][αMeS][Phe(4-COOH)]Y[Sar][Trp(1-Me)]C-NH2; thioether N-14) the Kd [1] was 0.3 nM, the IC50 [2] was 0.39 nM and the Kd [2] was 0.48 nM. For the same compound, the Kd (human TNFR2 ECD protein) was over 1000 nM.
